pIC50: −log10 of the molar value.
How the values were obtained:
[1] = target: Epidermal growth factor receptor (Homo sapiens, UniProt P00533, C797S/L858R/T790M); assay: Inhibition of recombinant human C-terminal His-tagged/N-terminal GST-tagged EGFR (668 to 1210 residues) T790M/L858R/C797S mutant expressed in baculovirus expression system using poly (Glu,Tyr) 4:1 as substrate incubated for 1 hr in presence of ATP by ELISA
[2] = test system: Epidermal growth factor receptor (Homo sapiens), P00533 [L858R,T790M,C797S]; assay: Inhibition of recombinant human C-terminal His-tagged/N-terminal GST-tagged EGFR (668 to 1210 residues) T790M/L858R/C797S mutant expressed in baculovirus expression system at 100 nM using poly (Glu,Tyr) 4:1 as substrate incubated for 1 hr in presence of ATP by ELISA relative to control
Sequence of Epidermal growth factor receptor (Homo sapiens), P00533 [L858R,T790M,C797S] (P00533 whole entry T790M/C797S/L858R, the tested form may be a part): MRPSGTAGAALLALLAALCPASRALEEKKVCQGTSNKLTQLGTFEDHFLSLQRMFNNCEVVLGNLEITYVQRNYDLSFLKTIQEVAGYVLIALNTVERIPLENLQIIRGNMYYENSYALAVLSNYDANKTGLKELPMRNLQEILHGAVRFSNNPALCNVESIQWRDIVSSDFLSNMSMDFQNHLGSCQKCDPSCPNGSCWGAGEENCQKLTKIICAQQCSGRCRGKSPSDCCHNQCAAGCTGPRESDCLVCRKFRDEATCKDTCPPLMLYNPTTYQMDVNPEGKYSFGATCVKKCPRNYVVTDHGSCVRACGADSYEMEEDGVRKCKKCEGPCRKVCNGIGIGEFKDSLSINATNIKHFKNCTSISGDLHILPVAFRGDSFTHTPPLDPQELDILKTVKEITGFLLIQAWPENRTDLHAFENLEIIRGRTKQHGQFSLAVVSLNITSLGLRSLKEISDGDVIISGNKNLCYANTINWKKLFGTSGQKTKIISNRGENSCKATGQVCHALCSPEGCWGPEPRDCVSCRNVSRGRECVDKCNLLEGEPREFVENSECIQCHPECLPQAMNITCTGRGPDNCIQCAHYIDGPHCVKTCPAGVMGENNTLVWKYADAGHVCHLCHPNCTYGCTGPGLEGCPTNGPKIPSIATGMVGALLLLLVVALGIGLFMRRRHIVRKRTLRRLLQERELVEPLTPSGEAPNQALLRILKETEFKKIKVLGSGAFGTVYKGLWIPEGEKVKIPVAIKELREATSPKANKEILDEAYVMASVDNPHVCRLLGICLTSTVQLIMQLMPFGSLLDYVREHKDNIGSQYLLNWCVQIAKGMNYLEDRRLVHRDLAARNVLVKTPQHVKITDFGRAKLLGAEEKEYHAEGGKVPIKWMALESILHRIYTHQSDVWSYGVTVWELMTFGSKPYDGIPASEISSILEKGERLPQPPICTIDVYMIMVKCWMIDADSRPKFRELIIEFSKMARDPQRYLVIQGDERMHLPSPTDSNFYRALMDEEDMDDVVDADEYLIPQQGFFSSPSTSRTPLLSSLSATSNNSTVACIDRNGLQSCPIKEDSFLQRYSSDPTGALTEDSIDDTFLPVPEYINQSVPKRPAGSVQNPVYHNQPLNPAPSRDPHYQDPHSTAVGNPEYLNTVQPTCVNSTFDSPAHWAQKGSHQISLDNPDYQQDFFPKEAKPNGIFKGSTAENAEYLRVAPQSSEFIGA

[3] = target: Receptor tyrosine-protein kinase erbB-4 (Homo sapiens) (UniProt Q15303); assay: Inhibition of ErbB4 (unknown origin) at 100 nM relative to control
[4] = target: Tyrosine-protein kinase ABL1 (Homo sapiens) (UniProt P00519); assay: Inhibition of Abl (unknown origin) at 100 nM relative to control
[5] = target: Platelet-derived growth factor receptor alpha (Homo sapiens) (UniProt P16234); assay: Inhibition of PDGFRalpha (unknown origin) at 100 nM relative to control
[6] = target: Tyrosine-protein kinase TXK (Homo sapiens) (UniProt P42681); assay: Inhibition of Txk (unknown origin) at 100 nM relative to control
[7] = target: Tyrosine-protein kinase receptor UFO (Homo sapiens) (UniProt P30530); assay: Inhibition of AXL (unknown origin) at 100 nM relative to control
[8] = target: Tyrosine-protein kinase BTK (Homo sapiens) (UniProt Q06187); assay: Inhibition of BTK (unknown origin) at 100 nM relative to control
Sequence of Tyrosine-protein kinase BTK (Homo sapiens) (Q06187 whole entry): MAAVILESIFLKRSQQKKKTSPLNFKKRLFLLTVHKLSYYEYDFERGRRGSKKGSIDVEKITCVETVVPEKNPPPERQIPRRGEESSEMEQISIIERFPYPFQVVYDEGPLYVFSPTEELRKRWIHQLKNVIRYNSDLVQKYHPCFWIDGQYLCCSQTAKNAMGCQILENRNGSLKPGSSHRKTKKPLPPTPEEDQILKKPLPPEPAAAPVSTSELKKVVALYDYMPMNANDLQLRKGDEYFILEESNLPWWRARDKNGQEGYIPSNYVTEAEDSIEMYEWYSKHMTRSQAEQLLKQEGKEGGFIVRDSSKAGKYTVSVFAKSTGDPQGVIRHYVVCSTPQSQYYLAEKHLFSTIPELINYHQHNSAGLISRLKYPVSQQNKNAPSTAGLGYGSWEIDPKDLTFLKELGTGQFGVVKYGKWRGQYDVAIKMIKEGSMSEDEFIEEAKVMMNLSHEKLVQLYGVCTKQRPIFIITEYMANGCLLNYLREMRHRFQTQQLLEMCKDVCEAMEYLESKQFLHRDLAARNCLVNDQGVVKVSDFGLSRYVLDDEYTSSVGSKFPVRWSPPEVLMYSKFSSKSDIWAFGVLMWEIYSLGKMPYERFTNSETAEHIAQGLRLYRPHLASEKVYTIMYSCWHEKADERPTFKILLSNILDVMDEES

[9] = target: Vascular endothelial growth factor receptor 2 (Homo sapiens) (UniProt P35968); assay: Inhibition of VEGFR2 (unknown origin) at 100 nM relative to control
[10] = target: Vascular endothelial growth factor receptor 1 (Homo sapiens) (UniProt P17948); assay: Inhibition of VEGFR1 (unknown origin) at 100 nM relative to control
[11] = target: Ephrin type-A receptor 2 (Homo sapiens) (UniProt P29317); assay: Inhibition of EPHA2 (unknown origin) at 100 nM relative to control
Sequence of Ephrin type-A receptor 2 (Homo sapiens) (P29317 whole entry): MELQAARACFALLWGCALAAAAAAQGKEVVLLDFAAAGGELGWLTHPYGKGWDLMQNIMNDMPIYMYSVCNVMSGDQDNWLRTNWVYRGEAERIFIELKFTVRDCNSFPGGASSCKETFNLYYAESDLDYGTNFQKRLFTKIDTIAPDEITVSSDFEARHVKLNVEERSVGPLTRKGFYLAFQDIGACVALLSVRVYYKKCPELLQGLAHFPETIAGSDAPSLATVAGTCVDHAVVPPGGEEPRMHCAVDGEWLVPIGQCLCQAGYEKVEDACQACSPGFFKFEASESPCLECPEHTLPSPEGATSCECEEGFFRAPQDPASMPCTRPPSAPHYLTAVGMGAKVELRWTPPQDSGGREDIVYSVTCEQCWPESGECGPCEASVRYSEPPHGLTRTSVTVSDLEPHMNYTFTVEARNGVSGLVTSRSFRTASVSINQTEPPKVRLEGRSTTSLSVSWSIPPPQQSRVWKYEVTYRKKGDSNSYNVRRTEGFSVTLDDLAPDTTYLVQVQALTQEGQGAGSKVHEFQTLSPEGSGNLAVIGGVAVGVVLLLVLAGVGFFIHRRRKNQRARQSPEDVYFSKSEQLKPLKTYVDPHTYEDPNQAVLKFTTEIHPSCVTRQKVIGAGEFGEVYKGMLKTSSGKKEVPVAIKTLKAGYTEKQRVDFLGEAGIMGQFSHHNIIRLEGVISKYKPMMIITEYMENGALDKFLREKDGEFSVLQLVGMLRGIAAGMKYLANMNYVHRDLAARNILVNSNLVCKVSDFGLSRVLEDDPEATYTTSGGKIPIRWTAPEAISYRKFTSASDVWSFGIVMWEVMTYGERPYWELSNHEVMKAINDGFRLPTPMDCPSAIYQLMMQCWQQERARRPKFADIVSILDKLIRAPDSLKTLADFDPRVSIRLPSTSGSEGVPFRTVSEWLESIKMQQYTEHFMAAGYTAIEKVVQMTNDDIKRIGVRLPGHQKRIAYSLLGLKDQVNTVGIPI

[12] = target: Ephrin type-B receptor 2 (Homo sapiens) (UniProt P29323); assay: Inhibition of EPHB2 (unknown origin) at 100 nM relative to control
[13] = target: Fibroblast growth factor receptor 2 (Homo sapiens) (UniProt P21802); assay: Inhibition of FGFR2 (unknown origin) at 100 nM relative to control
[14] = target: Fibroblast growth factor receptor 4 (Homo sapiens) (UniProt P22455); assay: Inhibition of FGFR4 (unknown origin) at 100 nM relative to control
[15] = target: Tyrosine-protein kinase JAK1 (Homo sapiens) (UniProt P23458); assay: Inhibition of JAK1 (unknown origin) at 100 nM relative to control
[16] = target: High affinity nerve growth factor receptor (Homo sapiens) (UniProt P04629); assay: Inhibition of TrkA (unknown origin) at 100 nM relative to control
[17] = target: BDNF/NT-3 growth factors receptor (Homo sapiens) (UniProt Q16620); assay: Inhibition of TrkB (unknown origin) at 100 nM relative to control
[18] = target: NT-3 growth factor receptor (Homo sapiens) (UniProt Q16288); assay: Inhibition of TrkC (unknown origin) at 100 nM relative to control
[19] = target: Inhibitor of NF-kappa-B kinase (IKK) (Homo sapiens) (UniProt O14920+O15111+Q9Y6K9); assay: Inhibition of IKK (unknown origin) at 100 nM relative to control; format: protein-complex assay
[20] = target: Proto-oncogene tyrosine-protein kinase receptor Ret (Homo sapiens) (UniProt P07949); assay: Inhibition of RET (unknown origin) at 100 nM relative to control
[21] = target: Mast/stem cell growth factor receptor Kit (Homo sapiens) (UniProt P10721); assay: Inhibition of cKIT (unknown origin) at 100 nM relative to control
[22] = target: Hepatocyte growth factor receptor (Homo sapiens) (UniProt P08581); assay: Inhibition of MET (unknown origin) at 100 nM relative to control
[23] = target: Cytoplasmic tyrosine-protein kinase BMX (Homo sapiens) (UniProt P51813); assay: Inhibition of BMX (unknown origin) at 100 nM relative to control
Sequence of Cytoplasmic tyrosine-protein kinase BMX (Homo sapiens) (P51813 whole entry): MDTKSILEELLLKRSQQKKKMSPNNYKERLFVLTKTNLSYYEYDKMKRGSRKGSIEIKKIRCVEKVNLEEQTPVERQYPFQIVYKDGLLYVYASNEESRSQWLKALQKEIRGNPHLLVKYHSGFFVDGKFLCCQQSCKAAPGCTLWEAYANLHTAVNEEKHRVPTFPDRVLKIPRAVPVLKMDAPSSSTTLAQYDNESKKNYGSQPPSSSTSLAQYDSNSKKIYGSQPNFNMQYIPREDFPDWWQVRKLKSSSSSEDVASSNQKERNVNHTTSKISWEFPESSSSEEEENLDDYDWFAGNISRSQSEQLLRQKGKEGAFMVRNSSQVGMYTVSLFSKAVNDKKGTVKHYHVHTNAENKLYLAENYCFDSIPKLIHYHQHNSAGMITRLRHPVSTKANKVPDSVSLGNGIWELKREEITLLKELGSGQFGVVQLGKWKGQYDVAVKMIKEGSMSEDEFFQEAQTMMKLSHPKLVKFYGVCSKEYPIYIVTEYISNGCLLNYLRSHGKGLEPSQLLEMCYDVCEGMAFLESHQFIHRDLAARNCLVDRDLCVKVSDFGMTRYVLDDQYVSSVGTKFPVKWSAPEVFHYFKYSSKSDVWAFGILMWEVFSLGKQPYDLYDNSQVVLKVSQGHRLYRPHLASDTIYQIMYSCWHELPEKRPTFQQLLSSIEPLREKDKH

[24] = target: Tyrosine-protein kinase Yes (Homo sapiens) (UniProt P07947); assay: Inhibition of YES (unknown origin) at 100 nM relative to control
[25] = target: Macrophage colony-stimulating factor 1 receptor (Homo sapiens) (UniProt P07333); assay: Inhibition of CSF1R (unknown origin) at 100 nM relative to control
[26] = target: Focal adhesion kinase 1 (Homo sapiens) (UniProt Q05397); assay: Inhibition of FAK (unknown origin) at 100 nM relative to control
[27] = test system: BaF3; assay: Cytotoxicity against mouse BAF3 cells incubated for 72 hrs by resazurin dye based assay; format: cell-based; conditions: BaF3, 72 h
[28] = test system: BaF3; assay: Antiproliferative activity against mouse BAF3 cells transfected with EGFR L858R/T790M/C797S mutant (unknown origin) incubated for 72 hrs by resazurin dye based assay; format: functional, cell-based; conditions: BaF3, 72 h
[29] = test system: NCI-H1975; assay: Antiproliferative activity human NCI-H1975 cells incubated for 72 hrs by SRB assay; format: functional, cell-based; conditions: NCI-H1975, 72 h
[30] = test system: A-431; assay: Antiproliferative activity human A431 cells incubated for 72 hrs by SRB assay; format: functional, cell-based; conditions: A-431, 72 h
[31] = test system: Epidermal growth factor receptor (Homo sapiens), P00533 [L858R,T790M,C797S]; assay: Inhibition of EGFR L858R/T790M/C797S mutant (unknown origin) transfected in mouse BAF3 cells assessed as inhibition of EGF-induced EGFR phosphorylation by Western blot analysis; format: cell-based
[32] = target: Epidermal growth factor receptor (Homo sapiens, UniProt P00533, C797S/EX19DEL/T790M); assay: Inhibition of EGFR 19D/T790M/C797S mutant (unknown origin) using poly (Glu,Tyr) 4:1 as substrate incubated for 1 hr in presence of ATP by ELISA
[33] = test system: BaF3; assay: Antiproliferative activity against mouse BAF3 cells transfected with EGFR 19D/T790M/C797S mutant (unknown origin) incubated for 72 hrs by resazurin dye based assay; format: functional, cell-based; conditions: BaF3, 72 h
[34] = Aqueous solubility of the compound in PBS buffer at pH 6.8 by UV-Vis spectrophotometric method; format: physicochemical
[35] = Clearance in rat at 1 mg/kg, iv measured for 0.083 to 24 hrs by LC-MS/MS analysis; format: ADME, organism-based; conditions: in vivo
[36] = target: Platelet-derived growth factor receptor beta (Homo sapiens) (UniProt P09619); assay: Inhibition of PDGFRbeta (unknown origin) at 100 nM relative to control

Sequence of Epidermal growth factor receptor (Homo sapiens, UniProt P00533, C797S/L858R/T790M) (P00533 whole entry T790M/C797S/L858R, the tested form may be a part): as the sequence (P00533 whole entry T790M/C797S/L858R, the tested form may be a part) above

**Q.** With COc1cc2c(Nc3ccc(NC(=O)C(c4cc(F)ccc4F)N4Cc5ccccc5C4=O)cc3F)ncnc2cc1OCC1CCN(C)CC1 (stereo unspecified) as the compound, how does the pIC50 [1] read?
**A.** 8.66

**Q.** And the inhibition [2]?
**A.** > 90%

**Q.** What about the inhibition [3] of the same compound?
**A.** > 90%

**Q.** What about the inhibition [4] of the same compound?
**A.** 50 to 75%

**Q.** And the inhibition [5]?
**A.** 50 to 75%

**Q.** And the inhibition [6]?
**A.** 50 to 75%

**Q.** What about the inhibition [7] of the same compound?
**A.** 50 to 75%

**Q.** What about the inhibition [8] of the same compound?
**A.** 50 to 75%

**Q.** What about the inhibition [9] of the same compound?
**A.** 50 to 75%

**Q.** What about the inhibition [10] of the same compound?
**A.** < 25%

**Q.** And the inhibition [11]?
**A.** < 25%

**Q.** What about the inhibition [12] of the same compound?
**A.** < 25%

**Q.** And the inhibition [13]?
**A.** < 25%

**Q.** And the inhibition [14]?
**A.** < 25%

**Q.** And the inhibition [15]?
**A.** < 25%

**Q.** What about the inhibition [16] of the same compound?
**A.** < 25%

**Q.** And the inhibition [17]?
**A.** < 25%

**Q.** What about the inhibition [18] of the same compound?
**A.** < 25%

**Q.** And the inhibition [19]?
**A.** < 25%

**Q.** And the inhibition [20]?
**A.** < 25%

**Q.** What about the inhibition [21] of the same compound?
**A.** < 25%

**Q.** What about the inhibition [22] of the same compound?
**A.** < 25%

**Q.** And the inhibition [23]?
**A.** < 25%

**Q.** And the inhibition [24]?
**A.** < 25%

**Q.** And the inhibition [25]?
**A.** < 25%

**Q.** And the inhibition [26]?
**A.** < 25%

**Q.** What about the pIC50 [27] of the same compound?
**A.** 5.11

**Q.** What about the pIC50 [28] of the same compound?
**A.** 6.19

**Q.** What about the pIC50 [29] of the same compound?
**A.** 5.52

**Q.** And the pIC50 [30]?
**A.** 5.91

**Q.** And the inhibition [31]?
**A.** Dose-dependent effect

**Q.** And the pIC50 [32]?
**A.** 6.48

**Q.** And the pIC50 [33]?
**A.** 5.45

**Q.** What about the solubility [34] of the same compound?
**A.** Insoluble

**Q.** What about the clearance [35] of the same compound?
**A.** 16 mL/min/kg

**Q.** And the inhibition [36]?
**A.** 50 to 75%

From ChEMBL document CHEMBL4396901, “Discovery of Potent and Noncovalent Reversible EGFR Kinase Inhibitors of EGFRL858R/T790M/C797S” (ACS Med Chem Lett, 2019)
